Converted amounts (≈) assume the structure as drawn.
What was measured:
Experiment in all cases: In vitro MIC, 2010 surveillance isolates
[1] = tested on: E. faecium VNS; format: cell-based; conditions: for Cumulative % Inhibition at MIC: N=614
[2] = tested on: Enterobacter spp; format: cell-based
[3] = tested on: E. cloacae CeftazR; format: cell-based; conditions: for Cumulative % Inhibition at MIC: N=254
[4] = tested on: A. baumanii; format: cell-based
[5] = tested on: MRSA; format: cell-based; conditions: for Cumulative % Inhibition at MIC: N=4192
[6] = tested on: MS CoNS; format: cell-based, Coagulase-Negative Staphylococcus; conditions: for Cumulative % Inhibition at MIC: N=461
[7] = tested on: E. faecium VS; format: cell-based; conditions: for Cumulative % Inhibition at MIC: N=575
[8] = tested on: K. pneumoniae ESBL−; format: cell-based, Klebsiella pneumoniae; conditions: for Cumulative % Inhibition at MIC: N=1381
[9] = tested on: Acinetobacter spp; format: cell-based; conditions: for range of MICs (N <10, shown instead of MIC90): N=9
[10] = tested on: E. cloacae CeftazS; format: cell-based; conditions: for Cumulative % Inhibition at MIC: N=550

CN(C)c1cc(CNCC(C)(C)C)c(O)c2c1C[C@H]1C[C@H]3[C@H](N(C)C)C(O)=C(C(N)=O)C(=O)[C@@]3(O)C(O)=C1C2=O [Compound 1, 9-[(2,2-dimethyl-propylamino)-methyl]-minocycline]
MIC90 ([1]; Asia/Pac, N=24): 0.25 µg/mL (≈ 0.449 µM) | MIC90 ([1]; Europe, N=71): 0.25 µg/mL (≈ 0.449 µM) | MIC90 ([1]; L. Amer, N=41): 0.12 µg/mL (≈ 0.216 µM) | Cumulative % Inhibition at MIC ([1]; MIC 1 μg/ml): 100% | Cumulative % Inhibition at MIC ([1]; MIC ≤0.5 μg/ml, listed as head image P00004): 98.4% | MIC90 ([1]; N America, N=478): 0.25 µg/mL (≈ 0.449 µM) | MIC90 ([2]; Asia/Pac, N=52): 16 µg/mL (≈ 28.7 µM) | MIC90 ([2]; Europe, N=82): 4 µg/mL (≈ 7.19 µM) | MIC90 ([2]; L. Amer, N=42): 4 µg/mL (≈ 7.19 µM) | MIC90 ([2]; N America, N=101): 4 µg/mL (≈ 7.19 µM) | MIC90 ([3]; Asia/Pac, N=63): 8 µg/mL (≈ 14.4 µM) | MIC90 ([3]; Europe, N=72): 8 µg/mL (≈ 14.4 µM) | MIC90 ([3]; L. Amer, N=42): 4 µg/mL (≈ 7.19 µM) | Cumulative % Inhibition at MIC ([3]; MIC 1 μg/ml): 7.9% | Cumulative % Inhibition at MIC ([3]; MIC 2 μg/ml): 54.3% | Cumulative % Inhibition at MIC ([3]; MIC 4 μg/ml): 81.9% | Cumulative % Inhibition at MIC ([3]; MIC 8 μg/ml): 90.2% | Cumulative % Inhibition at MIC ([3]; MIC 16 μg/ml): 94.1% | Cumulative % Inhibition at MIC ([3]; MIC ≤0.5 μg/ml, listed as head image P00015): 0.4% | Cumulative % Inhibition at MIC ([3]; MIC ≥32 μg/ml): 100% | MIC90 ([3]; N America, N=77): 16 µg/mL (≈ 28.7 µM) | MIC90 ([4]; Asia/Pac, N=275): 4 µg/mL (≈ 7.19 µM) | MIC90 ([4]; Europe, N=145): 4 µg/mL (≈ 7.19 µM) | MIC90 ([4]; L. Amer, N=275): 4 µg/mL (≈ 7.19 µM) | MIC90 ([4]; N America, N=154): 8 µg/mL (≈ 14.4 µM) | MIC90 ([5]; Asia/Pac, N=428): 1 µg/mL (≈ 1.8 µM) | MIC90 ([5]; Europe, N=750): 0.25 µg/mL (≈ 0.449 µM) | MIC90 ([5]; L. Amer, N=506): 0.25 µg/mL (≈ 0.449 µM) | Cumulative % Inhibition at MIC ([5]; MIC 1 μg/ml): 98.4% | Cumulative % Inhibition at MIC ([5]; MIC 2 μg/ml): 99.8% | Cumulative % Inhibition at MIC ([5]; MIC 4 μg/ml): 100% | Cumulative % Inhibition at MIC ([5]; MIC ≤0.5 μg/ml): 95.4% | MIC90 ([5]; N America, N=2508): 0.5 µg/mL (≈ 0.898 µM) | MIC90 ([6]; Asia/Pac, N=18): 0.25 µg/mL (≈ 0.449 µM) | MIC90 ([6]; Europe, N=185): 1 µg/mL (≈ 1.8 µM) | MIC90 ([6]; L. Amer, N=67): 0.5 µg/mL (≈ 0.898 µM) | Cumulative % Inhibition at MIC ([6]; MIC 1 μg/ml): 99.8% | Cumulative % Inhibition at MIC ([6]; MIC 2 μg/ml): 100% | Cumulative % Inhibition at MIC ([6]; MIC ≤0.5 μg/ml): 92.4% | MIC90 ([6]; N America, N=191): 0.5 µg/mL (≈ 0.898 µM) | MIC90 ([7]; Asia/Pac, N=106): 0.25 µg/mL (≈ 0.449 µM) | MIC90 ([7]; Europe, N=303): 0.12 µg/mL (≈ 0.216 µM) | MIC90 ([7]; L. Amer, N=51): 0.12 µg/mL (≈ 0.216 µM) | Cumulative % Inhibition at MIC ([7]; MIC 1 μg/ml): 100% | Cumulative % Inhibition at MIC ([7]; MIC ≤0.5 μg/ml, listed as head image P00003): 99.8% | MIC90 ([7]; N America, N=115): 0.25 µg/mL (≈ 0.449 µM) | MIC90 ([8]; Asia/Pac, N=189): 4 µg/mL (≈ 7.19 µM) | MIC90 ([8]; Europe, N=361): 4 µg/mL (≈ 7.19 µM) | MIC90 ([8]; L. Amer, N=160): 4 µg/mL (≈ 7.19 µM) | Cumulative % Inhibition at MIC ([8]; MIC 1 μg/ml): 29.1% | Cumulative % Inhibition at MIC ([8]; MIC 2 μg/ml): 79.9% | Cumulative % Inhibition at MIC ([8]; MIC 4 μg/ml): 92.1% | Cumulative % Inhibition at MIC ([8]; MIC 8 μg/ml): 95.6% | Cumulative % Inhibition at MIC ([8]; MIC 16 μg/ml): 98.3% | Cumulative % Inhibition at MIC ([8]; MIC ≤0.5 μg/ml, listed as head image P00009): 2.4% | Cumulative % Inhibition at MIC ([8]; MIC ≥32 μg/ml): 100% | MIC90 ([8]; N America, N=671): 4 µg/mL (≈ 7.19 µM) | range of MICs (N <10, shown instead of MIC90) ([9]; Asia/Pac): 0.06-2 | MIC90 ([9]; Europe, N=43): 4 µg/mL (≈ 7.19 µM) | range of MICs (N <10, shown instead of MIC90) ([9]; L. Amer): 0.03-4 | MIC90 ([9]; N America, N=42): 2 µg/mL (≈ 3.59 µM) | MIC90 ([10]; Asia/Pac, N=100): 4 µg/mL (≈ 7.19 µM) | MIC90 ([10]; Europe, N=183): 4 µg/mL (≈ 7.19 µM) | MIC90 ([10]; L. Amer, N=57): 8 µg/mL (≈ 14.4 µM) | Cumulative % Inhibition at MIC ([10]; MIC 1 μg/ml): 15.3% | Cumulative % Inhibition at MIC ([10]; MIC 2 μg/ml): 70.5% | Cumulative % Inhibition at MIC ([10]; MIC 4 μg/ml): 93.3% | Cumulative % Inhibition at MIC ([10]; MIC 8 μg/ml): 95.6% | Cumulative % Inhibition at MIC ([10]; MIC 16 μg/ml): 97.8% | Cumulative % Inhibition at MIC ([10]; MIC ≤0.5 μg/ml, listed as head image P00014): 0.5%
